Values of other authors in patent US20230309840A1, “TARGETING ABNORMAL CELL POPULATIONS FOR APOPTOSIS” (priority 2020, published 2023).

What was measured:
cancer cells = conditions: for anti-cancer activity: compared with curcumin
tumor = conditions: tumor-bearing mouse model, vs free cisplatin
[1] = test system: senescent human fibroblasts; conditions: at 100 μM
[2] = test system: airway inflammation and oxidative stress
[3] = in vivo
Drosophila melanogaster = conditions: in vivo
Caenorhabditis elegans = conditions: in vivo
[4] = test system: prostate cancer (Pica) cell

## C[C@H]1[C@H](OC(=O)CCC(=O)O)O[C@@H]2O[C@@]3(C)CC[C@H]4[C@H](C)CC[C@@H]1[C@@]24OO3 [Artesunate]
Cancer cell lines
  effect on cancer cell lines: cytotoxic effects

## CC1(C)C=C(CN2C/C(=C\c3ccc(F)cc3)C(=O)/C(=C/c3ccc(F)cc3)C2)C(C)(C)N1O [HO-3867]
Cancer cells
  anti-cancer activity: better anti-cancer activities than curcumin

## Tf-cisplatin complex: transferrin (Tf) conjugated cisplatin
tumor
  toxicity in other tissues: less toxicity in other tissues
  tumor growth inhibition: inhibited tumor growth in vivo more effectively than free cisplatin

## CC[C@H]1OC(=O)[C@H](C)[C@@H](O[C@H]2C[C@@](C)(OC)[C@@H](O)[C@H](C)O2)[C@H](C)[C@@H](O[C@@H]2O[C@H](C)C[C@H](N(C)C)[C@H]2O)[C@](C)(O)C[C@@H](C)CN(C)[C@H](C)[C@@H](O)[C@]1(C)O [Azithromycin]
[1]
  elimination of senescent cells: selectively eliminated large numbers of senescent cells
Control cells
  effect on control cells: without affecting control cells

## [HH] [hydrogen gas, hydrogen]
[2]; bronchial alveolar lavage fluid, inhalation
  number of total cells, eosinophils, and lymphocytes: significantly reduced
[2]; following inhalation
  IL-4 serum level: significantly decreased
[2]; inhalation
  activity of superoxide dismutase: markedly upregulated
  increased level of malondialdehyde and myeloperoxidase: significantly attenuated
  level of IL-4, IL-13, TNF-α and chemokine (C-X-C motif) ligand 15: increased the level

## O=c1c(O)c(-c2ccc(O)c(O)c2)oc2cc(O)cc(O)c12 [Quercetin]
other
  solubility in water: poorly soluble in water
[3]
  bioavailability: very low

## COc1cc(/C=C/C(=O)CC(=O)/C=C/c2ccc(O)c(OC)c2)ccc1O [curcumin, Curcumin]
other
  solubility in water: low aqueous solubility
[3]
  bioavailability: poor oral bioavailability
Drosophila melanogaster
  lifespan and health span: prolong lifespan and extend health span
Caenorhabditis elegans
  lifespan and health span: prolong lifespan and extend health span

## COc1ccc(/C=C/C(=O)CC(=O)/C=C/c2ccc(OC)c(OC)c2)cc1OC [DIMC, dimethoxycurcumin]
Cancer cells
  anti-cancer activity: better anti-cancer activities than curcumin

## O=C1/C(=C/c2ccccc2F)CNC/C1=C\c1ccccc1F [EF24]
Cancer cells
  anti-cancer activity: more efficacious against various cancer cells
Cancer cells; relative to curcumin
  potency in inducing cancer cell death: 10 fold
Senescent cells; combined with Navitoclax
  killing of senescent cells in combination: synergistically kill senescent cells
Senescent cells; variety of senescent cells
  cell viability of senescent cells: selectively decrease the cell viability

## CC[C@H]1OC(=O)[C@H](C)[C@@H](O[C@H]2C[C@@](C)(OC)[C@@H](O)[C@H](C)O2)[C@H](C)[C@@H](O[C@@H]2O[C@H](C)C[C@H](N(C)C)[C@H]2O)[C@](C)(O)C[C@@H](C)/C(=N\OCOCCOC)[C@H](C)[C@@H](O)[C@]1(C)O [Roxithromycin]
[1]
  elimination of senescent cells: selectively eliminated large numbers of senescent cells

## CC(C)=CCC/C(C)=C/CC/C(C)=C/CC[C@]1(C)CCc2cc(O)c(C)c(C)c2O1 [γ-Tocotrienols]
[4]
  inhibition of cell proliferation and invasion: potent and specific inhibitor
